Measured values taken from patent US20170232083A1, “METHODS OF DIAGNOSIS AND TREATMENT OF CELIAC DISEASE IN CHILDREN” (priority 2014, published 2017).

Test system: PBMC (polyclonal gluten-specific T cells) of paediatric and adult CD patients
Test: IFN-γ ELISpot of PBMC after 3 day oral wheat challenge (SFU, % of maximal peptide response, dominance scores, EC50; Examples 5-6)
Format: cell-based, human
Settings: for IFN-γ ELISpot response: after oral wheat challenge; for IFN-γ ELISpot responses Day 0 prior to vs Day 6 after wheat challenge: p<0.05, Kruskal Wallis; for Cross-reactive T cell response: following wheat challenge
[1] = patient G, 11-17 yrs, cut-off 10 SFU
[2] = patient H, 11-17 yrs, cut-off 10 SFU
[3] = patient ID not given, 11-17 yrs, cut-off 10 SFU
[4] = patient P, 11-17 yrs, cut-off 21.6 SFU
[5] = patient Q, 11-17 yrs, cut-off 10 SFU
[6] = patient U, H, 11-17 yrs, cut-off 10 SFU
[7] = patient V, 6-10 yrs, cut-off 10 SFU
[8] = patient Y, 6-10 yrs, cut-off 10 SFU
[9] = patient eleven, 6-10 yrs, cut-off 10 SFU
[10] = patient four, 3-5yrs, cut-off 10 SFU
[11] = patient seven, 6-10 yrs, cut-off 10.5 SFU
[12] = patient ten, 3-5yrs, cut-off 10 SFU
[13] = patient three, 6-10 yrs, cut-off 10.5 SFU
[14] = patient two, 3-5yrs, cut-off 10 SFU

PQQPQQSFPQQQQPA
IFN-γ ELISpot response [1]: 11 SFU
Significant response as percentage of maximal peptide SFU (patient G, max peptide 15 SFU): + (>70% = +)
IFN-γ ELISpot response [2]: 1 SFU
IFN-γ ELISpot response [3]: 3 SFU
Significant response as percentage of maximal peptide SFU (patient K, max peptide 53 SFU): ′′ (21-40% = ′′)
IFN-γ ELISpot response [4]: 4 SFU
IFN-γ ELISpot response [5]: 1 SFU
IFN-γ ELISpot response [6]: 2 SFU
IFN-γ ELISpot response [7]: 10 SFU
Significant response as percentage of maximal peptide SFU (patient V, max peptide 35 SFU): ′′ (21-40% = ′′)
IFN-γ ELISpot response [8]: 3 SFU
IFN-γ ELISpot response [9]: 0 SFU
IFN-γ ELISpot response [10]: 0 SFU
IFN-γ ELISpot response [11]: 10 SFU
IFN-γ ELISpot response [12]: 7 SFU
IFN-γ ELISpot response [13]: 1 SFU
IFN-γ ELISpot response [14]: 0 SFU

PFPEQPEQPFPQP
IFN-γ ELISpot response (patient A, 11-17 yrs, cut-off 10 SFU): 4 SFU
Significant response as percentage of maximal peptide SFU (patient D, max peptide 30.5 SFU): ′′ (21-40% = ′′)
IFN-γ ELISpot response (patient E, H, 11-17 yrs, cut-off 10 SFU): 30 SFU
Significant response as percentage of maximal peptide SFU (patient E, max peptide 224 SFU): ′ (11-20% = ′)
IFN-γ ELISpot response (patient F, 11-17 yrs, cut-off 10 SFU): 32 SFU
Significant response as percentage of maximal peptide SFU (patient F, max peptide 178 SFU): ′ (11-20% = ′)
IFN-γ ELISpot response [1]: 5 SFU
IFN-γ ELISpot response (patient H (HLA-DQ2.5 homozygote), 3-5yrs, cut-off 10 SFU): 19 SFU
IFN-γ ELISpot response [2]: 17 SFU
Significant response as percentage of maximal peptide SFU (patient H, max peptide 17 SFU): + (>70% = +)
IFN-γ ELISpot response [3]: 24 SFU
Significant response as percentage of maximal peptide SFU (patient ID not given, max peptide 95 SFU): ′′ (21-40% = ′′)
Significant response as percentage of maximal peptide SFU (patient J, max peptide 196 SFU): ′′ (21-40% = ′′)
Significant response as percentage of maximal peptide SFU (patient K, max peptide 53 SFU): ′′ (21-40% = ′′)
Significant response as percentage of maximal peptide SFU (patient M, max peptide 48 SFU): ′′ (21-40% = ′′)
IFN-γ ELISpot response (patient N, 3-5yrs, cut-off 10 SFU): 2 SFU
IFN-γ ELISpot response [4]: 8 SFU
IFN-γ ELISpot response [5]: 35 SFU
Significant response as percentage of maximal peptide SFU (patient Q, max peptide 97 SFU): ′′ (21-40% = ′′)
IFN-γ ELISpot response [6]: 13 SFU
Significant response as percentage of maximal peptide SFU (patient U, max peptide 81 SFU): ′ (11-20% = ′)
IFN-γ ELISpot response [7]: 16 SFU
Significant response as percentage of maximal peptide SFU (patient V, max peptide 35 SFU): ′′′ (41-70% = ′′′)
IFN-γ ELISpot response [8]: 4 SFU
IFN-γ ELISpot response [9]: 4 SFU
Significant response as percentage of maximal peptide SFU (patient five, max peptide 48 SFU): ′′ (21-40% = ′′)
IFN-γ ELISpot response [10]: 6 SFU
IFN-γ ELISpot response [11]: 9 SFU
IFN-γ ELISpot response [12]: 5 SFU
IFN-γ ELISpot response [13]: 51 SFU
IFN-γ ELISpot response (patient twelve, 11-17 yrs, cut-off 10 SFU): 11 SFU
IFN-γ ELISpot response [14]: 24 SFU
Significant response as percentage of maximal peptide SFU (patient two, max peptide 60 SFU): ′′ (21-40% = ′′)

tetanus toxoid: positive control antigen (CSL, Australia) [reference compound]
IFN-γ ELISpot responses Day 0 prior to vs Day 6 after wheat challenge: no difference
IFN-γ ELISpot responses Day 0 prior to vs Day 6 after wheat challenge (listed as Tetanus toxoid): did not differ

PFPLQPEQPVPEQPQ
Cross-reactive T cell response (subject A, 11-17yrs): 2 SFU
Cross-reactive T cell response (subject D, 11-17yrs): 9 SFU
Cross-reactive T cell response (subject E, 11-17yrs): 3 SFU
Significant response as a percentage of maximal peptide SFU (subject F, 11-17yrs): ′ (11-20% = ′)
Cross-reactive T cell response (subject F, 11-17yrs): 20 SFU
Cross-reactive T cell response (subject G, 11-17yrs): 0 SFU
Cross-reactive T cell response (subject H): 3 SFU
Cross-reactive T cell response (subject I (3-5yrs/6-10yrs part)): 1 SFU
Cross-reactive T cell response (subject J (3-5yrs/6-10yrs part)): 3 SFU
Cross-reactive T cell response (subject K (3-5yrs/6-10yrs part)): 5 SFU
Cross-reactive T cell response (subject P, 11-17yrs): 6 SFU
Cross-reactive T cell response (subject Q, 11-17yrs): 5 SFU
Significant response as a percentage of maximal peptide SFU (subject T, 11-17yrs): ′′ (21-40% = ′′)
Cross-reactive T cell response (subject T, 11-17yrs): 21 SFU
Significant response as a percentage of maximal peptide SFU (subject U, 11-17yrs): ′ (11-20% = ′)
Cross-reactive T cell response (subject U, 11-17yrs): 10 SFU
Cross-reactive T cell response (subject V (3-5yrs/6-10yrs part)): 7 SFU
Cross-reactive T cell response (subject W (3-5yrs/6-10yrs part)): 11 SFU
Cross-reactive T cell response (subject Y (3-5yrs/6-10yrs part)): 2 SFU
Cross-reactive T cell response (subject five (3-5yrs/6-10yrs part)): 1 SFU
Cross-reactive T cell response (subject nine, 11-17yrs): 1 SFU
Cross-reactive T cell response (subject seven (3-5yrs/6-10yrs part)): 1 SFU
Cross-reactive T cell response (subject six (3-5yrs/6-10yrs part)): 3 SFU
Significant response as a percentage of maximal peptide SFU (subject ten): + (>70% = +)
Cross-reactive T cell response (subject ten (3-5yrs/6-10yrs part)): 11 SFU
Cross-reactive T cell response (subject two (3-5yrs/6-10yrs part)): 5 SFU
